Laboratory results as given in publication PMC8471001 (Biosensors, 2021).
pIC50: −log10 of the molar value. “Also recorded” adds a separate entry of the source.

Columns and labels:
mushroom tyrosinase = assay: Spectrophotometric progress-curve assay of free tyrosinase with L-tyrosine (half-time reaction t'1/2); assay type: biochemical; settings: plot of t'1/2 versus inhibitor concentration at 0.5-3 mM L-tyrosine
Method: Substrate conversion was evaluated by measuring the increase in absorbance at 490 nm. The absorbance was sampled every 1 min, allowing each progression curve to be constructed in 40 min.
(§1) To evaluate the degree of inhibition (I%) of the tyrosinase activity, signal responses in the absence (I0) and the presence of an inhibitor (I1) were measured with either an electrochemical or colorimetric method. The degree of inhibition (I%) is expressed as follows: (1) I(%)=I0−I1/I0×100

[1] = tested on: tyrosinase (EC 1.14.18.1, from mushroom); assay: Amperometric biosensor: tyrosinase immobilized on carbon black paste electrode, inhibition of catechol response; assay type: biochemical; settings: for type of inhibition: from shift of inhibition curve, 20 vs 200 µM catechol; for type of inhibition / pIC50: immobilized tyrosinase; for inhibition range of catechol response: 20 µM catechol; for pIC50: 0.1 M phosphate buffer pH 6.8, -0.15 V vs. Ag/AgCl
Method: The immobilization of tyrosinase onto the surface of the carbon black paste electrode (CBPE) was achieved by cross-linking with glutaraldehyde and bovine serum albumin (BSA) as reported elsewhere for several enzyme biosensors. In brief, the enzyme solution was first prepared by mixing 15 µL of Tyr (35 U/mL), 7.5 µL of BSA (1% w/v), and 7.5 µL of glutaraldehyde (0.25% w/v) on a glass slide. Then, 7.5 µL of the mixture was spread on the surface of a CBPE, and lastly, it was dried at room temperature for 1 h. Before electrochemical measurements, the enzyme electrode was placed under stirring for 10 min in PBS buffer to remove the enzyme not firmly immobilized. The electrodes were maintained at 4 °C in phosphate buffer, pH 6.8 until use.
The tyrosinase was immobilized on the surface of the carbon black paste electrode. The electrochemical measurements of o-quinone produced by the tyrosinase-based biosensor, in presence of catechol as substrate, were monitored by an amperometric measurement.
The enzyme activity assays were performed in an electrochemical cell containing 5 mL of 0.1 M phosphate buffer, pH 6.8 at 25 °C. The applied potential was fixed at −0.15 V.
To perform each amperometric measurement, the CBPE-Tyr electrode was dipped into an electrochemical cell containing 5 mL of 0.1 M phosphate buffer solution (pH 6.8) under constant magnetic stirring. The applied potential was fixed to −0.15 V versus Ag/AgCl. Once the baseline was established (10 min approximately), a defined amount of catechol solution was added to the measuring cell. […] Then, the inhibitor solutions were added consecutively each time a plateau was reached (approximately every 30 s). The addition of tyrosinase inhibitors causes an inhibition of the enzyme, consequently decreasing the amount of liberated enzymatic reaction products.
as §1
When using the amperometric biosensor, the CBPE/Tyr modified electrode was immersed into a phosphate buffer solution at pH 6.8, under stirring and a fixed potential of −0.15 V. After stabilizing the baseline current, a fixed amount of catechol (substrate) was added to reach a steady-state current (I0) before adding the inhibitor. […] The concentration of inhibitors was increased to inhibit tyrosinase activity, and the current decrease (I1) was recorded.

| type of inhibition (mushroom tyrosinase) | inhibition range of catechol response ([1]; inhibitor 2.5 µM to 97.5 µM) | SMILES | type of inhibition [1] | pIC50 ([1]; 20 µM catechol substrate) | pIC50 ([1]; 200 µM catechol substrate) | inhibition range of catechol response ([1]; inhibitor 5 µM to 275 µM) | inhibition range of catechol response ([1]; inhibitor 0.01 mM to 1.57 mM) |
| --- | --- | --- | --- | --- | --- | --- | --- |
| competitive inhibition | 13–74% | O=c1cc(CO)occ1O [kojic acid] | competitive inhibition; also recorded: competed with catechol |  |  |  |  |
|  |  | O=C(O)c1ccccc1 [benzoic acid] | competed with catechol | 3.92 | 3.30 | 8–69% |  |
|  |  | [N-]=[N+]=[N-].[Na+] [sodium azide] | competed with catechol | 2.83 | 2.70 |  | 7–64% |
